Assay results reported in PMC7236056 (ACS Medicinal Chemistry Letters, 2020).

Key:
[1] = biological target: T1, hPPARγ (Homo sapiens, UniProt P37231); assay: GAL-4 PPAR transactivation assay, agonist activity; conditions: 1, 2.5 and 5 μM; HepG2; data not shown
T1 sequence (P37231 238-503 limits assumed): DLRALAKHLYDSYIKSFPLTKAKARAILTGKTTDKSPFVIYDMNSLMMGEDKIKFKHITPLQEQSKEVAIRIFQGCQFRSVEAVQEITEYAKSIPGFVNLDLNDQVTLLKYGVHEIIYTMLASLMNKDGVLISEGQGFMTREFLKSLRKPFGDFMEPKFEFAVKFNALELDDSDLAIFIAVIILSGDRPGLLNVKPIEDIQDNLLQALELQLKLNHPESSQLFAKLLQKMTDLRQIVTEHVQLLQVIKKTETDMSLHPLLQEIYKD

[2] = biological target: T2, hPPARα (Homo sapiens, UniProt Q07869); assay: GAL-4 PPAR transactivation assay, agonist activity; conditions: 1, 2.5 and 5 μM; HepG2
T2 sequence (Q07869 239-466 limits assumed): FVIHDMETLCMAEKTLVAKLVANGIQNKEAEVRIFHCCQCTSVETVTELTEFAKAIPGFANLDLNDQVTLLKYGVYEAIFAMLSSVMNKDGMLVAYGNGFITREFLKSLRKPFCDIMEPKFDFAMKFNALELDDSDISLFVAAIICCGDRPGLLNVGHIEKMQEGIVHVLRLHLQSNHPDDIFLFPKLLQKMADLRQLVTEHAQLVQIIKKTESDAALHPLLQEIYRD

[3] = test system: colorectal cancer cell lines (HT-29, SW480); assay: MTT cell viability, colorectal cancer cell lines; assay type: cell-based; conditions: Homo sapiens, 72 h, read-out: inhibition rate in the colon cancer cell lines
[4] = test system: paraganglioma (PGL) cell lines (PTJ64i, PTJ86i); assay: MTT cell viability, paraganglioma cell lines; assay type: cell-based; conditions: Homo sapiens, 72 h, read-out: inhibition rate in the PGL cell lines
[5] = test system: eight human cancer cell lines (AsPC-1, BxPC-3, Capan-2, HT-29, SW480, PTJ64i, PTJ86i, A498); assay: MTT cell viability, eight human cancer cell lines, single concentration; assay type: cell-based; conditions: 75 μM, 72 h
[6] = test system: CPT1A; assay: Expression of PPARα target gene CPT1A by RTqPCR; assay type: cell-based, human; conditions: HepG2, 48 h; test compounds 0.5 µM, GW7647 2 µM

SMILES	inhibition at 75 µM [3]	inhibition at 75 µM [4]	other results
CC(C)(Oc1ccc(CCOc2ccc(/N=N/c3ccccc3)cc2)cc1)C(=O)NS(=O)(=O)c1ccccc1 [2b]			agonist activity on PPARγ [1]: no detectable PPARα/γ activity; agonist activity on PPARα [2]: no detectable PPARα/γ activity
CC(C)(Oc1ccc(CCOc2ccc(/N=N/c3ccccc3)cc2)cc1)C(=O)NS(=O)(=O)c1ccc(Cl)cc1 [3c]	52 to 98%	84 to 98%	
CC(C)(Oc1ccc(CCOc2ccc(/N=N/c3ccccc3)cc2)cc1)C(=O)NS(=O)(=O)c1ccc([N+](=O)[O-])cc1 [3d]	52 to 98%	84 to 98%	
CC(C)(Oc1ccc(CCOc2ccc(NC(=O)c3ccccc3)cc2)cc1)C(=O)NS(=O)(=O)c1ccccc1 [10e]	52 to 98%	84 to 98%	
CCC(=O)NC[C@H](Cc1ccc(OCCc2nc(-c3ccccc3)oc2C)cc1)N/C(C)=C\C(=O)c1ccc(C(F)(F)F)cc1 [GW6471, reference compound]		85 to 92%	effect on cell viability across the tumor cell lines tested [5]: showed antiproliferative activities
CC(C)(Sc1ccc(CCN(CCCCC2CCCCC2)C(=O)NC2CCCCC2)cc1)C(=O)O [GW7647]			CPT1A mRNA expression, compound alone [6]: robustly stimulated CPT1A expression
Cc1cccc(Nc2cc(Cl)nc(SCC(=O)O)n2)c1C [Wy-14,643]			effect on cell viability across the tumor cell lines tested [5]: did not affect cell viability
